From patent US6509355B1, “Treatment of disorders of the outer retina” (Alcon Laboratories, Inc., priority 1998, dated 2003)

Tests used:
[1] = Drugs of the Future 1994; cited from earlier work
[2] = tested on: light induced functional or morphological changes; assay: Light damage paradigms (light induced damage paradigm); conditions: in vivo
Protocol: Eliprodil was evaluated in our light induced damage paradigm, a model of retinal degenerative diseases such as retinitis pigmentosa and age-related macular degeneration.

NMDA receptor = assay: Binding affinity to the NMDA receptor; conditions: order of magnitude only
retinal laser burn = assay: Retinal laser burn spread damage: argon laser, lesion area in outer nuclear layer after 48 hours; type: in vivo, Pigmented Long Evans rats
From the text: The eye is exposed to high-energy laser radiation during the performance of retinal photocoagulation therapy (grid, focal and […]) or during photodynamic therapy. This type of therapy is often employed during treatment of choroidal neovascularization, proliferative stages of diabetic retinopathy, retinopathy of prematurity, or to repair retinal holes or […]. Associated with this laser therapy is tissue destruction leading to vision deterioration. […] It is believed that this vision loss results directly from the expansion of the laser-induced lesion to surrounding normal neurosensory retina and RPE. Singlet oxygen and other reactive oxygen species as well as cytokines are generated in the area of the laser burn and thought to migrate laterally to cause collateral retinal damage. Retinal morphology changes in this area are similar to changes in our photo-oxidative retinopathy paradigm. […] Pigmented Long Evans rats were randomly assigned to control, vehicle or drug dosed groups. […] After a 48-hour recovery period, eyes were fixed, dehydrated, and embedded in plastic resin. Histological assessment of laser burns was performed by flatmounting the retina and sectioning the tissue in a plane tangential to the nerve fiber layer. Using this technique, the lesion area in the outer nuclear layer could be calculated using an image analysis system. […] The laser bum center was marked by; complete closure of all capillaries, arterioles and venuoles; perforation of Bruch's membrane; pyknosis and necrosis of all photoreceptor nuclei; and destruction of inner and outer segments. Spread of the lesion into peripheral retina consisted of shortening of outer segments, inner segment swelling, clumping of melanin granules in the RPE and choroid, and vacuolization of the RPE.

[3] = biological target: NR1A/NR2B subtype of the polyamine binding site of the NMDA receptor (Homo sapiens, UniProt Q05586+Q13224); conditions: cited from earlier work
[4] = tested on: photo-oxidative induced retinopathy; assay: Photo-oxidative induced retinopathy: 6-hour blue light exposure, ERG after 5-day recovery; conditions: rat, in vivo
From the text: Photic retinopathy results from excessive excitation of the retinal pigment epithelium and neuroretina by absorption of visible or near ultraviolet radiation. Lesion severity is dependent upon wavelength, irradiance, exposure duration, species, ocular pigmentation, and age. Damage may result from peroxidation of cellular membranes, inactivation of mitochondrial enzymes such as cytochrome oxidase, or increased intracellular calcium. Cellular damage resulting from photo-oxidative stress leads to cell death by apoptosis, (Shahinfar, S., Edward. D. P. and Tso, M. O. (1991), A pathologic study of photoreceptor cell death in retinal photic injury. Current Eye Research, 10:47-59: Abler, A. S., Chang, C. J., Fu, J. and Tso, M. O. (1994), Photic injury triggers apoptosis of photoreceptor cells. Investigative Ophthalmology & Visual Science, 35(Suppl):1517). Oxidative stress induced apoptosis has been implicated as a cause of many ocular pathologies, including, iatrogenic retinopathy, macular degeneration, retinitis pigmentosa and other forms of heredodegenerative disease, ischemic retinopathy, retinal tears, retinal detachment, glaucoma and retinal neovascularization (Chang, C. J., Lai, W. W., Edward, D. P. and Tso, M. O. (1995), Apoptotic photoreceptor cell death after traumatic retinal detachment in humans, Archives of Ophthalmology, 113:880-886: Portera-Cailliau, C., Sung, C. H., Nathans, J. and Adler, R. (1994), Apoptotic photoreceptor cell death in mouse models of retinitis pigmentosa, Proceedings of National Academy of Science (U.S.A.), 91:974-978; Buchi, E. R. (1992), Cell death in the rat retina after a pressure-induced ischaemia-reperfusion insult: an electron microscopic study. I. Ganglion cell layer and inner nuclear layer, Experimental Eye Research, 55:605-613; Quigley, H. A., Nickells. R. W., Kerrigan, L. A., Pease, M. E., Thibault, D. J. and Zack, D. J. (1995), Retinal ganglion cell death in experimental glaucoma and after axotomy occurs by apoptosis, Investigative Ophthalmology & Visual Science, 36:774-786). […] Alan R. Liss, Inc., New York; Collier, R., W. Waldron and Zigman, S. (1989), Temporal sequence of changes to the gray squirrel retina after near-UV exposure, Investigative Ophthalmology & Visual Science, 30:631-637), non-human primates (Tso, M. O. M. (1973), Photic maculopathy in rhesus monkey. A light and electron microscopic study. Investigative Ophthalmology & Visual Science, 12:17-34; Ham, W. T., Jr., Ruffolo, J. J., Jr., Mueller, H. A. and Guerry, D., III. (1980), The nature of retinal radiation damage: dependence on wavelength, power level and exposure time, Vision Research, 20:1105-1111; Sperling, H. G., Johnson, C. and Harwerth, R. S. (1980), Differential spectral photic damage to primate cones, Vision Research, 20:1117-1125: Sykes, S. M., Robison, W. G., Jr., Waxler, M. and Kuwabara, T. (1981), Damage to the monkey retina by broad spectrum fluorescent light, Investigative Ophthalmology & Visual Science, 20:425-434; Lawwill, T. (1982), Three major pathologic processes caused by light in the primate retina: A search for mechanisms, Transactions of the American Ophthalmology Society, 80:517-577), and man (Marshall, J. Hamilton, A. M. and Bird, A. C. (1975), Histopathology of ruby and argon laser lesions in monkey and human retina, British Journal of Ophthalmology, 59:610-630; Green, W. R. and Robertson, D. M. (1991), Pathologic findings of photic retinopathy in the human eye. American Journal of Ophthalmology, 112:520-27).

[5] = Drugs of the Future 1994; cited from earlier work; remark: listed apart in the source

Chain of NR1A/NR2B subtype of the polyamine binding site of the NMDA receptor (Q13224 27-1484, other chains not shown): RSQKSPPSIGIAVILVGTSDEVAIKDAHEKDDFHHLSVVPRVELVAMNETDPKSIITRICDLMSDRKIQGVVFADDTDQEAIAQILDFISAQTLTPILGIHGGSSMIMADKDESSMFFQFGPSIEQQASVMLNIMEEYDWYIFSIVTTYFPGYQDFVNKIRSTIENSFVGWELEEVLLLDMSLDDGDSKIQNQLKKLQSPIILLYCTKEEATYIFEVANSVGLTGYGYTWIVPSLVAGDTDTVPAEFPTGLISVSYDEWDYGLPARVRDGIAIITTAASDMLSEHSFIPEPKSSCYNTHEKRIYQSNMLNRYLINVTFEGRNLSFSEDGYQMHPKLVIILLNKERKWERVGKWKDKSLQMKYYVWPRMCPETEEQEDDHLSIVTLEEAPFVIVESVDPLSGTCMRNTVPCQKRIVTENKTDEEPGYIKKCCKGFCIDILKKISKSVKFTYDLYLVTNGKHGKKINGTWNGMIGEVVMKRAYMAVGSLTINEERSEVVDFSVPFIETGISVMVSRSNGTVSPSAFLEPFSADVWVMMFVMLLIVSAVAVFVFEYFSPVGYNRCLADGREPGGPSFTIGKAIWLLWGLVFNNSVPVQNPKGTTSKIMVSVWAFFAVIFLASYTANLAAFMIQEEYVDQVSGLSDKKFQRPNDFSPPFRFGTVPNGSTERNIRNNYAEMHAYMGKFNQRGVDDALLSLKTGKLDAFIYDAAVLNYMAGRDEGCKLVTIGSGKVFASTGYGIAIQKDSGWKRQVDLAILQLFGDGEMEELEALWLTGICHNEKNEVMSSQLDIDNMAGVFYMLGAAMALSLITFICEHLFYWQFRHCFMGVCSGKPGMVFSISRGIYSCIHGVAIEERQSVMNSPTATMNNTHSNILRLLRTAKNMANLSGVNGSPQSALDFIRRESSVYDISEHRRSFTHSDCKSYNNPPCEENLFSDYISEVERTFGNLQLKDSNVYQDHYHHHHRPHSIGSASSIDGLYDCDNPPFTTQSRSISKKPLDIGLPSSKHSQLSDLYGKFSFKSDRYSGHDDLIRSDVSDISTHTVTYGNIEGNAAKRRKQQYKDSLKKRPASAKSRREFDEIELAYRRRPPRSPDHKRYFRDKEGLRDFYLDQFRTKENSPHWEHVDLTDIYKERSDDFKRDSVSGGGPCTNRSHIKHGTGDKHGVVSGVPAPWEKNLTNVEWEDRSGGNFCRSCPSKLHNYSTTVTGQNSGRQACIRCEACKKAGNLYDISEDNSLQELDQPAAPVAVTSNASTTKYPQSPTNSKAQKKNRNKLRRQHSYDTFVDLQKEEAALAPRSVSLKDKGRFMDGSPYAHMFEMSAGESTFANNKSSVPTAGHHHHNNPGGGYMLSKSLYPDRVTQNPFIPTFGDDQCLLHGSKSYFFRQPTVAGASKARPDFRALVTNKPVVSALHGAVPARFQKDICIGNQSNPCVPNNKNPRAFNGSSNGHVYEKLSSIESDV

## OC(CN1CCC(Cc2ccc(F)cc2)CC1)c1ccc(Cl)cc1 (racemic) [Eliprodil, 2-[4-(4-fluorobenzyl)-piperidino]-1-(4-chlorophenyl)ethanol]
[1]
  incidence of adverse effects upon administration: low incidence of adverse effects
[2]
  preventing light induced functional or morphological changes: completely protected
NMDA receptor
  binding affinity to the NMDA receptor: nanomolar
Retinal laser burn; 10 mg/kg IP
  Laser burn lesion area: 55,411.67 μ^2
  reduction in laser lesion burn size: No reduction
Retinal laser burn; IP, dose not given
  reduction of retinal burn area compared to vehicle: approximately 60%
  significance of burn area reduction compared to vehicle: significantly reduced
Retinal laser burn; IP, dose not given, vehicle 55,243.65, control 50,627.07
  average burn area: 22,406 μ^2
Retinal laser burn; summary
  efficacy compared to R-eliprodil: twice as efficacious
  potency compared to R-eliprodil: two fold more potent
  reduction of collateral retinal damage around the laser burn (summary): significant reduction
[3]
  subtype preference of NMDA receptor block: preferentially block
[4]
  dose dependence of protection of outer and inner retina function: dose-dependent protection
[4]; ip, 2 mg/kg
  ERGs, % of normal: approximately 32%
  protection of outer and inner retina function against light induced retinal degeneration: not significantly different than vehicles
[4]; ip, 10 mg/kg
  ERGs, % of normal: approximately 32%
  protection of outer and inner retina function against light induced retinal degeneration: not significantly different than vehicles
[4]; ip, 20 mg/kg
  ERG a-wave, % of normal: 57%
  ERG a-wave, fold higher than vehicle dosed rats: 2.4 fold
  ERG b-wave, % of normal: 53%
  ERG b-wave, fold higher than vehicle dosed rats: 2.2 fold
  Maximum a-wave response amplitude, fold higher than vehicle dosed rats: 2.4 fold
  maximum a-wave response amplitude: 395.82 μV
  response amplitudes, % of normal: approximately 60%
[4]; ip, 40 mg/kg
  Maximum a-wave response amplitude, fold higher than vehicle dosed rats: 2.25 fold
  maximum a-wave response amplitude: 419.85 μV
  protection of outer and inner retina function against light induced retinal degeneration: significant protection
  response amplitudes, % of normal: approximately 60%
[5]
  crossing of the blood-brain barrier: effectively crosses the blood-brain barrier
  oral bioavailability: orally bioavailable
